Measurements taken from publication PMC7044277 (Nature Communications, 2020).
Where “and” joins values, the source holds several entries; their conditions need not be identical. Equal values may be shown once.

Columns and labels:
[1] = molecular target: 320 non-olfactory GPCRs (Homo sapiens, UniProt Q99500); format: cell-based; set-up: GPCRome screening signal at PTGIR / GPCRome screening signal at PTH1R / GPCRome screening signal at PTH2R / GPCRome screening signal at QRFP / GPCRome screening signal at RXFP2 / GPCRome screening signal at RXFP3 / GPCRome screening signal at RXFP4 / GPCRome screening signal at S1PR2 / GPCRome screening signal at S1PR3 / GPCRome screening signal at S1PR4 / GPCRome screening signal at S1PR5 / GPCRome screening signal at SCTR / GPCRome screening signal at SSTR2 / GPCRome screening signal at SSSTR / GPCRome screening signal at SSTR4 / GPCRome screening signal at SSTR5 / GPCRome screening signal at SUCNR1 / GPCRome screening signal at TA1 / GPCRome screening signal at TAAR2 / GPCRome screening signal at TAAR5 / GPCRome screening signal at TAAR6 / GPCRome screening signal at TAAR8 / GPCRome screening signal at TACR1 / GPCRome screening signal at TACR2 / GPCRome screening signal at TACR3 / GPCRome screening signal at TBXA2R / GPCRome screening signal at TSHR / GPCRome screening signal at UTS2R / GPCRome screening signal at VIPR2 / GPCRome screening signal at GPR68 no V2 Tail / GPCRome screening signal at GRM2 / GPCRome screening signal at GRM3: reference not given here; conditions: receptor S1PR3
[2] = molecular target: 320 non-olfactory GPCRs (Homo sapiens, UniProt P35346); format: cell-based; set-up: GPCRome screening signal at PTGIR / GPCRome screening signal at PTH1R / GPCRome screening signal at PTH2R / GPCRome screening signal at QRFP / GPCRome screening signal at RXFP2 / GPCRome screening signal at RXFP3 / GPCRome screening signal at RXFP4 / GPCRome screening signal at S1PR2 / GPCRome screening signal at S1PR3 / GPCRome screening signal at S1PR4 / GPCRome screening signal at S1PR5 / GPCRome screening signal at SCTR / GPCRome screening signal at SSTR2 / GPCRome screening signal at SSSTR / GPCRome screening signal at SSTR4 / GPCRome screening signal at SSTR5 / GPCRome screening signal at SUCNR1 / GPCRome screening signal at TA1 / GPCRome screening signal at TAAR2 / GPCRome screening signal at TAAR5 / GPCRome screening signal at TAAR6 / GPCRome screening signal at TAAR8 / GPCRome screening signal at TACR1 / GPCRome screening signal at TACR2 / GPCRome screening signal at TACR3 / GPCRome screening signal at TBXA2R / GPCRome screening signal at TSHR / GPCRome screening signal at UTS2R / GPCRome screening signal at VIPR2 / GPCRome screening signal at GPR68 no V2 Tail / GPCRome screening signal at GRM2 / GPCRome screening signal at GRM3: reference not given here; conditions: receptor SSTR5
[3] = Fig_5f, single replicate values
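Throughout, for GPCRome agonism screen response: fold over basal response of each receptor without drug.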

320 non-olfactory GPCRs (Homo sapiens, UniProt Q99500), sequence (Q99500 whole entry): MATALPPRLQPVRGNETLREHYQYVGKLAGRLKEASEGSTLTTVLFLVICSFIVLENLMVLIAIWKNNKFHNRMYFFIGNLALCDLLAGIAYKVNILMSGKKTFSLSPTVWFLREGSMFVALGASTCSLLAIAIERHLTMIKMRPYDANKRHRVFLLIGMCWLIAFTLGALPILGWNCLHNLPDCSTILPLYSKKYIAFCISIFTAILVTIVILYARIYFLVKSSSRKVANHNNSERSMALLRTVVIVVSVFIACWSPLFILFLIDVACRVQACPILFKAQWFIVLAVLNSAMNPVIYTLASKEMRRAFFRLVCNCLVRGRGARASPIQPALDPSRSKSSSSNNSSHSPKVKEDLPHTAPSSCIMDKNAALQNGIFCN
320 non-olfactory GPCRs (Homo sapiens, UniProt P35346), sequence (P35346 whole entry): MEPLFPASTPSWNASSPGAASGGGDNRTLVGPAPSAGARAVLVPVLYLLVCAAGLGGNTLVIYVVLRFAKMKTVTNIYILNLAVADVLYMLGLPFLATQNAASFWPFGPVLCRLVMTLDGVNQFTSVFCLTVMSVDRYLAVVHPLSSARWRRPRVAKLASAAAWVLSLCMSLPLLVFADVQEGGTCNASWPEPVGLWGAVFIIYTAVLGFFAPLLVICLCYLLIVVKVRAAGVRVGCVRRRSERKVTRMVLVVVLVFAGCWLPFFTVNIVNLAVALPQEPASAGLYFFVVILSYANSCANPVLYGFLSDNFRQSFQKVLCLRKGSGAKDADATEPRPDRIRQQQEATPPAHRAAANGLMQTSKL

SMILES	GPCRome screening signal at S1PR3 [1, 3]	GPCRome screening signal at SSTR5 [2, 3]	GPCRome agonism screen response ([1]; replicate values, Fig_4g)	GPCRome agonism screen response ([2]; replicate values, Fig_4g)
CCOc1ccccc1CCC(C)NCC1(O)CCCCC1.Cl (racemic) [Fig_5f]	1.578 and 1.076 and 2.206 and 1.217	1.884 and 1.207 and 1.033 and 0.572		
CCOc1cccc2cc(C(C)NCC3(O)CCCCC3)oc12 (stereo not shown) [O4LE6]			2.336 and 1.6343 and 1.172 and 1.379	1.067 and 0.3371 and 0.8014 and 0.9752
